In paper PMC8071314, “Computational Design and Development of Benzodioxane-Benzamides as Potent Inhibitors of FtsZ by Exploring the Hydrophobic Subpocket” (Antibiotics, 2021):
Values after ≈ are worked out from the molar mass of the structure shown.

What was measured:
MRC-5 cells = assay: MTT cytotoxicity assay on MRC-5 cells; type: cell-based, human; conditions: concentration reducing viability of MRC-5 cells by 90%, 24 h incubation
Procedure: (§1) We first determined the minimal inhibitory concentration (MIC), i.e., the lowest compound dose (µM) arresting bacterial growth, and the minimal bactericidal concentration (MBC), i.e., the minimal dose (µM) of the compound required for an irreversible block, even after drug removal. Secondly, the derivatives having the most promising activities vs. MRSA were also tested on human MRC-5 cells, calculating their percentages of cytotoxicity by using the MTT assay. Cells were first incubated with each compound for 24 h, then the derivative was removed, and the cells were overlaid with MTT for an additional 3 h. After that time, DMSO replaced the MTT solution, and after 10 min the absorbance was measured at 570 nm. The percentage of cytotoxicity was defined by the formula [100 − (sample OD/untreated cells OD) × 100]. Table 2 reports TD90, defined as the compound concentration (µM) that reduced viability of MRC-5 cells by 90%. Moreover, we reported the therapeutic index (TI), as TD90 and MBC ratio.
Compounds showing an antibacterial activity at a concentration lower than 10 μg/mL were serially diluted in DMEM and tested for cytotoxicity on MRC-5 cells by the MTT assay (Sigma, St Louis, MO, USA). Protocol was the same previously reported.

[1] = test system: B. subtilis strain WM5126; assay: Spot viability assay on LB plates; type: cell-based; conditions: Bacillus subtilis, spotted on LB plates with 0, 0.03, 0.06, 0.1 or 1 µg/mL compound
Procedure: The promising properties of these new compounds prompted us to test them on B. subtilis, a model Gram-positive species used previously in evaluating other benzamides, such as 8j, the benzothiazole derivative of PC190723 [28]. We chose derivatives 1, 5, and 8, which had the lowest MICs on S. aureus and because they were representative of different substituents on the benzodioxane scaffold. B. subtilis strain WM5126 was grown until early log phase, and then 1 × and 10 × dilutions of the culture were spotted onto LB plates containing 0, 0.03, 0.06, 0.1, or 1 µg/mL final concentration of the compounds.
The two B. subtilis strains used were WM3612 (JH642 amyE::Pxyl-gfp-gp56), described in Bhambani et al., and WM5126 (JH642 amyE::Pxyl-gfp-zapA), which is the same as strain FG347 [29]. For spot viability assays on plates, compounds were diluted from DMSO stocks into molten LB agar as described above and mixed well before solidifying. WM3612 cultures were grown to early exponential phase in LB broth at 37 °C, then spotted directly or after 1:10 dilution into LB onto LB plates containing various concentrations of compounds. After allowing spots to air dry, plates were then incubated overnight at 34 °C and photographed.

MDRSA 11.7 = assay: MIC on multidrug resistant clinical S. aureus strain MDRSA 11.7 (EUCAST/CLSI); type: cell-based; conditions: Staphylococcus aureus
Procedure: (§2) We tested 1–8 for their antimicrobial activity on different S. aureus strains (Table 2).
(§3) The antibacterial activities on MDRSA 11.7 and MDRSA 12.1 were performed following the European Committee on Antimicrobial Susceptibility Testing (EUCAST) recommendations and Clinical and Laboratory Standards Institute (CLSI) guidelines, as detailed before. Tetracycline was used as a positive control on every assay plate.

MDRSA 12.1 = assay: MIC on multidrug resistant clinical S. aureus strain MDRSA 12.1 (EUCAST/CLSI); type: cell-based, Staphylococcus aureus; conditions: for MIC: Staphylococcus aureus, MDRSA 12.1
Procedure: as §2, §3

[2] = test system: B. subtilis FtsZ rings (strain WM5126, GFP-ZapA); assay: Fluorescence microscopy of GFP-ZapA (Z ring) localization; type: cell-based, Bacillus subtilis; conditions: 1 h exposure
Procedure: (yellow arrows in Figure 5 highlight normal sharp bands at the future division sits). On the contrary, in cells treated with compounds 7 and 8, we observed GFP-ZapA forming many (0.4 µg/mL 7) or nearly all (0.8 µg/mL 7 or 0.4 µg/mL 8) foci or focal clusters (white arrows in Figure 5), and abnormal cell elongation is clearly evident. The perturbation of Z rings and cell elongation is similar to the previously described effects of 8j.
For fluorescence microscopy, overnight cultures of WM5126 were grown at […] (after 1:200 dilution of overnight and addition of 0.1% xylose to induce expression of GFP-ZapA) for ~2 h until reaching an OD600 of ~0.2, then treated with no drug or with compounds 7 or 8 diluted in water from stock solutions of 40 mg/mL (8) or 27 mg/mL (7) in DMSO. Those dilutions (40 µg/mL in water) were then added at 1:100 or 1:50 to the cultures and grown for 1 h shaking at 33 °C prior to spotting on a thin layer of 1% agarose in phosphate buffered saline. Cells were imaged with differential interference contrast (DIC) and fluorescence using an Olympus BX100 fitted with a 100 × Plan Apochromat objective (N.A. 1.4) and a GFP filter set (Chroma). Images were acquired with CellSens software (Olympus) and DIC, and fluorescent images of the same field were overlaid using ImageJ [31].
Figure 5 Effect of compounds 7 and 8 on B. subtilis Z rings. B. subtilis strain WM5126 was induced with 0.1% xylose to express GFP-ZapA, then exposed to compounds 7 or 8 for 1 h during exponential growth at 37 °C prior to imaging by DIC and fluorescence. Yellow arrows indicate normal sharp rings at the future division site, while white arrows indicate abnormal foci or clusters. Scale bar, 5 µm.

[3] = test system: MSSA ATCC 29213 and MRSA ATCC 43300; assay: MIC and MBC on methicillin-sensitive and methicillin-resistant S. aureus; type: cell-based, Staphylococcus aureus; conditions: for fold more potent than inferior (methylenoxy) homolog: MRSA and MSSA, 1 vs VI, 2 vs VII, 3 vs V, 5 vs 4, 8 vs 7; for MIC / MBC: Staphylococcus aureus, MSSA ATCC 29213 and MRSA ATCC 43300; for MIC: lowest dose arresting bacterial growth; for MBC: minimal dose for irreversible block
Procedure: as §1
The antibacterial activity was tested on both a methicillin-sensitive and a methicillin-resistant S. aureus strain, dissolving all the compounds in dimethyl sulfoxide (DMSO) and using fresh cell cultures at 10^5 cells/mL, in a final volume of 2 mL. The detailed protocol is identical to what was previously reported. Every assay was performed in quadruplicate, and for each series of experiments, both positive (no compounds) and negative (no bacteria) controls were included.

MSSA ATCC29213 = test system: MSSA ATCC29213; parameters: method as in PMID 25462242, PMID 27191617, PMID 31750973, PMID 28586174, PMID 32260339; conditions: Figure 1; cited from earlier work

| SMILES | MIC (MDRSA 11.7) | MIC (MDRSA 12.1) | MIC [3] | TD90 (MRC-5 cells) | melting point | MIC [1] | GFP-ZapA forming foci or focal clusters ([2]; 0.4 µg/mL) | fold more potent than inferior (methylenoxy) homolog [3] | MBC [3] | MIC (MSSA ATCC29213) | times more active than inferior homolog (MDRSA 12.1; MDRSA, 3 vs V) | GFP-ZapA forming foci or focal clusters ([2]; 0.8 µg/mL) |
| --- | --- | --- | --- | --- | --- | --- | --- | --- | --- | --- | --- | --- |
| NC(=O)c1c(F)ccc(OCCC2COc3cc4c(cc3O2)CCCC4)c1F (stereo not drawn) [Compound 8, 3-[2-(2,3,6,7,8,9-hexahydronaphtho[2,3-b][1,4]dioxin-2-yl)ethoxy]-2,6-difluorobenzamide] | 0.3 µM (≈ 0.117 µg/mL) | 0.3 µM (≈ 0.117 µg/mL) | 0.25 µM (≈ 0.0973 µg/mL) | 2054 µM | 166.5 °C | < 0.1 µg/mL | nearly all | 50 fold | 0.25 µM (≈ 0.0973 µg/mL) |  |  |  |
| NC(=O)c1c(F)ccc(OCC2COc3cc4c(cc3O2)CCCC4)c1F (stereo not drawn) [Compound 7] | 10.7 µM (≈ 4.02 µg/mL) | 5.3 µM (≈ 1.99 µg/mL) | 13.3 µM (≈ 4.99 µg/mL) | 200 µM |  |  | many |  | 13.3 µM (≈ 4.99 µg/mL) |  |  | nearly all |
| NC(=O)c1c(F)ccc(OCc2nc3cc(Cl)ccc3s2)c1F [Compound 8j] |  |  |  |  |  |  |  |  |  | 0.70 µM (≈ 0.248 µg/mL) |  |  |
| COC(=O)c1ccc2c(c1)OC(COc1ccc(F)c(C(N)=O)c1F)CO2 (stereo not drawn) [IV] |  |  |  |  |  |  |  |  |  | 1.6 µM (≈ 0.607 µg/mL) |  |  |
| NC(=O)c1c(F)ccc(OCCC2COc3cc4ccccc4cc3O2)c1F (stereo not drawn) [Compound 5, 3-[2-(2,3-dihydronaphtho[2,3-b][1,4]dioxin-2-yl)ethoxy]-2,6-difluorobenzamide] | 1.3 µM (≈ 0.501 µg/mL) | 0.6 µM (≈ 0.231 µg/mL) | 0.6 µM (≈ 0.231 µg/mL) | 233 µM |  | < 0.1 µg/mL |  | 12 fold | 0.6 µM (≈ 0.231 µg/mL) |  |  |  |
| NC(=O)c1c(F)ccc(OCc2nc3cc(Cl)cnc3s2)c1F [PC190723] |  |  |  |  |  |  |  |  |  | 2.8 µM (≈ 0.996 µg/mL) |  |  |
| NC(=O)c1c(F)ccc(OCCCC2COc3ccccc3O2)c1F (stereo not drawn) [III] |  |  |  |  |  |  |  |  |  | 28.6 µM (≈ 9.99 µg/mL) |  |  |
| Cc1nc(-c2ccc3c(c2)OC(CCOc2ccc(F)c(C(N)=O)c2F)CO3)no1 (stereo not drawn) [Compound 1, 3-[2-(7-(5-methyl-1,2,4-oxadiazol-3-yl)-1,4-benzodioxan-2-yl)ethyloxy]-2,6-difluorobenzamide] | 1.2 µM (≈ 0.501 µg/mL) | 1.2 µM (≈ 0.501 µg/mL) | 1.2 µM (≈ 0.501 µg/mL) | >1910 µM |  | 0.1 to 1 µg/mL (≈ 0.24 to 2.4 µM) |  | 5 fold | 1.2 µM (≈ 0.501 µg/mL) |  |  |  |

Second part, led by results:

| MIC (MDRSA 11.7) | MIC (MDRSA 12.1) | MIC [3] | SMILES | TD90 (MRC-5 cells) | melting point | MIC [1] | GFP-ZapA forming foci or focal clusters ([2]; 0.4 µg/mL) | fold more potent than inferior (methylenoxy) homolog [3] | MBC [3] | MIC (MSSA ATCC29213) | times more active than inferior homolog (MDRSA 12.1; MDRSA, 3 vs V) | GFP-ZapA forming foci or focal clusters ([2]; 0.8 µg/mL) |
| --- | --- | --- | --- | --- | --- | --- | --- | --- | --- | --- | --- | --- |
| 11.9 µM (≈ 3.99 µg/mL) | 11.9 µM (≈ 3.99 µg/mL) | 14.9 µM (≈ 5 µg/mL) | NC(=O)c1c(F)ccc(OCCC2COc3ccccc3O2)c1F (stereo not drawn) [II, reference compound] | 226 µM |  |  |  |  | 14.9 µM (≈ 5 µg/mL) | 14.9 µM (≈ 5 µg/mL) |  |  |
| 1.1 µM (≈ 0.494 µg/mL) | 1.1 µM (≈ 0.494 µg/mL) | 0.5 µM (≈ 0.225 µg/mL) | CSc1nc(-c2ccc3c(c2)OC(CCOc2ccc(F)c(C(N)=O)c2F)CO3)no1 (stereo not drawn) [Compound 3, 3-[2-(7-(5-methylthio-1,2,4-oxadiazol-3-yl)-1,4-benzodioxan-2-yl)ethyloxy]-2,6-difluorobenzamide] | 1668 µM |  |  |  | three | 0.5 µM (≈ 0.225 µg/mL) |  | two |  |
| 9.9 µM (≈ 3.99 µg/mL) | 5 µM (≈ 2.02 µg/mL) | 6.2 µM (≈ 2.5 µg/mL) | Cc1nc(-c2ccc3c(c2)OC(COc2ccc(F)c(C(N)=O)c2F)CO3)no1 (stereo not drawn) [VI, reference compound] | >1983 µM |  |  |  |  | 6.2 µM (≈ 2.5 µg/mL) | 6.2 µM (≈ 2.5 µg/mL) |  |  |
| 49.8 µM (≈ 16 µg/mL) | 24.9 µM (≈ 8 µg/mL) | 15.6 µM (≈ 5.01 µg/mL) | NC(=O)c1c(F)ccc(OCC2COc3ccccc3O2)c1F (stereo not drawn) [I, reference compound] | 49.8 µM |  |  |  |  | 249 µM (≈ 80 µg/mL) | 15.6 µM (≈ 5.01 µg/mL) |  |  |
| 11.2 µM (≈ 4 µg/mL) | 11.2 µM (≈ 4 µg/mL) | 14 µM (≈ 5 µg/mL) | NC(=O)c1c(F)ccc(OCCCOc2ccc3ccccc3c2)c1F [Compound 6] | >2238 µM |  |  |  |  | 14 µM (≈ 5 µg/mL) |  |  |  |
| < 2.3 µM | < 2.3 µM | 1.4 µM (≈ 0.61 µg/mL) | CSc1nc(-c2ccc3c(c2)OC(COc2ccc(F)c(C(N)=O)c2F)CO3)no1 (stereo not drawn) [V, reference compound] | 1700 µM |  |  |  |  | 1.4 µM (≈ 0.61 µg/mL) | 1.4 µM (≈ 0.61 µg/mL) |  |  |
| 0.6 µM (≈ 0.259 µg/mL) | 0.6 µM (≈ 0.259 µg/mL) | 0.6 µM (≈ 0.259 µg/mL) | CCc1nc(-c2ccc3c(c2)OC(CCOc2ccc(F)c(C(N)=O)c2F)CO3)no1 (stereo not drawn) [Compound 2] | 1854 µM |  |  |  | 10 fold | 0.6 µM (≈ 0.259 µg/mL) |  |  |  |
| 9.6 µM (≈ 4.01 µg/mL) | 4.8 µM (≈ 2 µg/mL) | 6 µM (≈ 2.5 µg/mL) | CCc1nc(-c2ccc3c(c2)OC(COc2ccc(F)c(C(N)=O)c2F)CO3)no1 (stereo not drawn) [VII, reference compound] | >1916 µM |  |  |  |  | 6 µM (≈ 2.5 µg/mL) | 6.0 µM (≈ 2.5 µg/mL) |  |  |
| 11.4 µM (≈ 4.23 µg/mL) | 11.4 µM (≈ 4.23 µg/mL) | 7.1 µM (≈ 2.64 µg/mL) | NC(=O)c1c(F)ccc(OCC2COc3cc4ccccc4cc3O2)c1F (stereo not drawn) [Compound 4, 3-[(2,3-dihydronaphtho[2,3-b][1,4]dioxin-2-yl)methoxy]-2,6-difluorobenzamide] | >2276 µM |  |  |  |  | 7.1 µM (≈ 2.64 µg/mL) |  |  |  |
